Values quoted from earlier work in article PMC4871512, “Drug-Based Lead Discovery: The Novel Ablative Antiretroviral Profile of Deferiprone in HIV-1-Infected Cells and in HIV-Infected Treatment-Naive Subjects of a Double-Blind, Placebo-Controlled, Randomized Exploratory Trial” (PLoS ONE, 2016).

Columns and labels:
DOHH = system: DOHH; set-up: method as in PMID 12115536; details: clinically relevant concentrations; cited from earlier work
HIV-1 [1] = system: HIV-1; set-up: method as in PMID 9715844; details: cited from earlier work
[2] = system: HIV-infected cell lines and HIV-infected primary cells; details: cited from earlier work
human or mouse epithelia = system: human or mouse epithelia; set-up: method as in PMID 24086341; details: concentrations that ablate yeast and HIV-infected cells; cited from earlier work
HIV-1 [3] = system: HIV-1; set-up: method as in PMID 8793010; details: culture; cited from earlier work
[4] = system: productively infected macrophages; set-up: method as in PMID 7973634; details: cited from earlier work
HIV-1 [5] = system: HIV-1; set-up: method as in PMID 8648207, PMID 9498441, PMID 9952363; details: after 12 weeks on monotherapy; cited from earlier work
[6] = clinically relevant concentrations

SMILES: CC(=O)N(O)CCCCCNC(=O)CCC(=O)N(O)CCCCCNC(=O)CCC(=O)N(O)CCCCCN [deferoxamine]
- suppression of DOHH activity (DOHH): does not achieve maximal suppression of DOHH activity
- dose-related antiretroviral effect in persons living with HIV-1 (HIV-1 [1]): does not display a dose-related antiretroviral effect
- ablation of HIV-infected cells [2, 6]: does not ablate HIV-infected cells
- antiretroviral activity in culture [2, 6]: does not display antiretroviral activity in culture

SMILES: Cc1cc(C2CCCCC2)n(O)c(=O)c1 [ciclopirox, 6-cyclohexyl-1-hydroxy-4-methylpyridin-2[1H]-one]
- acute toxicity at human or mouse epithelia (human or mouse epithelia): does not cause acute toxicity
- off-drug re-emergence of HIV-1 RNA synthesis, compared with deferiprone ([2]; ciclopirox at 30 μM): gave similar results
- antiretroviral activity of the paired 1,2-HOPO chelators [2]: antiretrovirally active
- viral breakthrough during monotherapy ([2]; up to 5 weeks of monotherapy): neither allowed breakthrough

SMILES: NC(Cn1ccc(=O)c(O)c1)C(=O)O (stereo not drawn) [mimosine]
- ribosomal presence of gag mRNA, amount of intra- and extracellular p24, budding of viral particles ([2]; treated HIV-infected cells): suppress

SMILES: Cc1ccnc2c1NC(=O)c1cccnc1N2C1CC1 [nevirapine]
- time to viral breakthrough during monotherapy (HIV-1 [3]): ≥ 4 days

SMILES: NC(=O)NO [hydroxyurea]
- HIV-1 DNA [4]: depleted HIV-1 DNA
- viral breakthrough [4]: blocked breakthrough during three weeks of treatment
- viral rebound after cessation [4]: did not allow rebound after cessation

SMILES: Cc1cn([C@H]2C[C@H](N=[N+]=[N-])[C@@H](CO)O2)c(=O)[nH]c1=O [zidovudine]
- viral load decline (HIV-1 [5]): -0.3 log10
- time to viral breakthrough during monotherapy (HIV-1 [3]): ≥ 4 days
